Measured values as given in BindingDB's records for doi:10.1021/jm031026e (Universit&#224, 2004).

What follows are compounds tested against Sigma non-opioid intracellular receptor 1 (Cavia porcellus) (UniProt Q60492) (assay: In vitro binding affinity at opioid sigma-1 receptor in guinea pig brain membranes by (+)-[3H]pentazocine displacement.).
Sigma non-opioid intracellular receptor 1 (Cavia porcellus), sequence (Q60492 whole entry, looked up): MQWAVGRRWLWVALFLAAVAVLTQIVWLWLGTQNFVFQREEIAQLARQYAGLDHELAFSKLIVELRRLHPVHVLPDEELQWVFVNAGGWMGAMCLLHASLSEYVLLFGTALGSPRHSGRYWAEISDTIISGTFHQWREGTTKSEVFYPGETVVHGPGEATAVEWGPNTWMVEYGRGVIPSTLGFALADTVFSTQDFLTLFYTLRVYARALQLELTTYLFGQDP

SMILES	Ki
c1ccc2c(CCCN3CCN(C4CCCCC4)CC3)cccc2c1 [1-Cyclohexyl-4-(3-naphthalen-1-yl-propyl)-piperazine]	2.16 nM
c1ccc2c(CCCCN3CCN(C4CCCCC4)CC3)cccc2c1 [1-Cyclohexyl-4-(4-naphthalen-1-yl-butyl)-piperazine]	0.22 nM
COc1cccc2c1CCCC2N1CCN(C2CCCCC2)CC1 (centres undefined) [1-Cyclohexyl-4-(5-methoxy-1,2,3,4-tetrahydro-naphthalen-1-yl)-piperazine]	0.4 nM
COc1cccc2c1CCCC2CN1CCN(C2CCCCC2)CC1 (centres undefined) [1-Cyclohexyl-4-(5-methoxy-1,2,3,4-tetrahydro-naphthalen-1-ylmethyl)-piperazine]	0.31 nM
c1ccc2c(CCCCCN3CCN(C4CCCCC4)CC3)cccc2c1 [1-Cyclohexyl-4-(5-naphthalen-1-yl-pentyl)-piperazine]	2.4 nM
COc1cccc2c1CCCC2CCN1CCN(C2CCCCC2)CC1 (centres undefined) [1-Cyclohexyl-4-[2-(5-methoxy-1,2,3,4-tetrahydro-naphthalen-1-yl)-ethyl]-piperazine]	1.57 nM
c1ccc2c(c1)CCCC2CCCN1CCN(C2CCCCC2)CC1 (centres undefined) [1-Cyclohexyl-4-[3-(1,2,3,4-tetrahydro-naphthalen-1-yl)-propyl]-piperazine]	0.61 nM
COc1ccc2c(c1)CCCC2CCCN1CCN(C2CCCCC2)CC1 (centres undefined) [1-Cyclohexyl-4-[3-(6-methoxy-1,2,3,4-tetrahydro-naphthalen-1-yl)-propyl]-piperazine]	0.36 nM
COc1ccc2c(c1)C(CCCN1CCN(C3CCCCC3)CC1)CCC2 (centres undefined) [1-Cyclohexyl-4-[3-(7-methoxy-1,2,3,4-tetrahydro-naphthalen-1-yl)-propyl]-piperazine]	9.04 nM
c1ccc2c(c1)CCCC2CCCCCN1CCN(C2CCCCC2)CC1 (centres undefined) [1-Cyclohexyl-4-[5-(1,2,3,4-tetrahydro-naphthalen-1-yl)-pentyl]-piperazine]	1.45 nM
COc1cccc2c1CCCC2CCCCCN1CCN(C2CCCCC2)CC1 (centres undefined) [1-Cyclohexyl-4-[5-(5-methoxy-1,2,3,4-tetrahydro-naphthalen-1-yl)-pentyl]-piperazine]	1.52 nM
COc1cccc2c1CCCC2CCCCCCN1CCN(C2CCCCC2)CC1 (centres undefined) [1-Cyclohexyl-4-[6-(5-methoxy-1,2,3,4-tetrahydro-naphthalen-1-yl)-hexyl]-piperazine]	3.07 nM
Oc1ccc2c(c1)CCCC2CCCN1CCN(C2CCCCC2)CC1 (centres undefined) [5-[3-(4-Cyclohexyl-piperazin-1-yl)-propyl]-5,6,7,8-tetrahydro-naphthalen-2-ol]	0.69 nM
c1ccc(CCN2CCCCC2)cc1 [N-phenethylpiperidine]	309 nM
